As a reminder, the melting point is the temperature of the solid-liquid transition.

Compound `O=S(=O)(Cc1ccccc1)Nc1ncc(-c2ccccc2)nc1Cc1ccccc1` had a melting point of 207 to 208 °C.
To `Cc1ccc(CCc2ccccc2Br)c(NC=O)c1` belongs 167 to 169 °C; to `Cc1sc(C(=O)NCc2ccc3c(c2)OCO3)cc1NC(=O)NCc1ccccc1`, 194 to 195 °C; to `CC1=N/C(=C\c2c[nH]c3ncc(Cl)cc23)C(=O)N1C`, 295 to 300 °C.
In turn, `COC(=O)Nc1nc(C)c(-c2nc3ccccc3c(=O)n2-c2ccccc2)s1` had a melting point above 275 °C.
Consider `CC(=O)c1cc(NC(=O)c2ccccc2)cc(C(C)=O)c1`, for which the melting point fell in the range of 188 to 189 °C.
To `O=C(O)c1nc(SCc2ccccc2)ccc1SCc1ccccc1` belongs 129 °C.
To `COC(=O)C(O)=CC(=O)c1cn(Cc2ccc(F)cc2)c(=O)n(Cc2ccc(F)cc2)c1=O` belongs 171 to 173 °C.
The same measure for `CCCCNc1c(C(=O)OCC)c(C)nc2nccnc12`: 56 to 58 °C; for `COc1cc(CC(=O)Nc2ccc(C3CN(C(=O)c4ccccc4)CC3C(=O)O)cc2)ccc1NC(=O)Nc1ccccc1C` (stereo not drawn): 248 °C; for `O=CNC[C@H]1CN(c2ccc(N3CCOCC3)c(F)c2)C(=O)O1`: 44 to 47 °C.
Turning to `Fc1cccc(OC2CN(C3CCC(c4c[nH]c5ccccc45)CC3)C2)c1` (stereo not drawn), the melting point lay in the range of 114 to 117 °C.
To `Nc1nc2ccc(NC(=O)C(=O)N3CCC(Cc4ccccc4)CC3)cc2s1` belongs 203 °C.
To `COC(=O)c1ccccc1NC(=S)NN(C)C` belongs 149 to 152 °C.
The same measure for `COc1cc(C#N)ccc1-c1cc(-c2cccc(C#N)c2)on1`: 202 to 204 °C; for `COc1ccccc1CCC1CNC(=O)O1` (stereo not drawn): 76 to 77 °C.
`COc1cc(C(F)(F)F)cc(Cl)c1Oc1ccc2ccc(O)cc2c1` came in with a melting point of 130 °C.
`COc1cc(OC)nc(Cc2ccccc2N)n1`: the melting point is 82 to 84 °C.
Regarding `O=C(CN1C(=O)c2ccccc2C1=O)NCc1nncn1-c1ccc(Cl)cc1C(=O)c1ccccc1`, the melting point was in the range of 214 to 215 °C.
`CN(C)CCCN(c1ccccc1)c1ncccc1NC(=O)c1ccccc1Cl` showed a melting point of 90 to 92 °C.
To `O=C(O)C(=O)c1ccc(OCc2ccc3ccccc3n2)cc1` belongs 225 to 228 °C; to `NOCc1nnc2n1-c1ccc(Cl)cc1C(c1ccccc1)=NC2`, 183 to 186 °C; to `CC(C)(C)OC(=O)CN1C(=O)[C@@H](NC(=O)OC(C)(C)C)CC(=O)c2ccccc21`, 75 to 77 °C.
As to `CN1Cc2ccccc2C(c2ccccc2)N=C1Cc1ccc(NS(C)(=O)=O)cc1` (stereo not drawn), the melting point is 182 to 185 °C.
Turning to `COc1ccccc1-c1ccccc1C1=NC(C)(C)CO1`, the melting point lay in the range of 129 to 131 °C.
To `Cc1cc(C)c2nc(Nc3ccc(CN)cc3)n(Cc3nc(C)ccc3O)c2c1` belongs 255 °C; to `COC(=O)C(=O)c1nccn1Cc1cccs1`, 72.5 to 74.5 °C.
The same measure for `CCCCc1cc2ccccc2c(Oc2ccc(/C=C/C(=O)O)cc2)c1-c1ccc(O)cc1`: 107 to 109 °C.
The compound `COc1ccc(Nc2cccc3c2C(=O)N(C2CCC(=O)NC2=O)C3=O)c(OC)c1` (stereo not drawn) displayed a melting point of 208 to 210 °C.
`O=C1c2ccccc2-n2cnc(-c3nc(CCl)cs3)c2[C@@H]2CCN12` registered a melting point of 248 to 249 °C.
Compound `Nc1ccc(N2CCCC2)nn1` returned a melting point of 209 to 211 °C.
For `O=C(O)CCCCCCCCCCn1c(-c2ccccc2)c(-c2ccccc2)n(-c2ccccc2)c1=O`, the melting point is 83 to 84 °C.
The same measure for `CCCOc1ccccc1-c1nc(N)c(NC(=O)C(F)(F)F)c(=O)[nH]1`: 203 to 204 °C; for `CCC(C)N(C)C(=O)c1cc(-c2ccccc2F)c2sccc2c1` (stereo not drawn): 89 °C.
For `COc1ccc(-n2nc(Sc3ccccc3)c(C)c(C#N)c2=O)cc1`, the melting point lay in the range of 179 to 180 °C.
For `O=S1(=O)N=CN(C2CC2)c2cc(Br)cc(C(F)(F)F)c21`, the melting point is 253 to 254 °C.
The same measure for `c1ccc(Oc2ccc(N3CCNCC3)nn2)cc1`: 96 to 97 °C.
The compound `CNc1nc(C)c(C)cc1NC(=O)N1CCN(c2cc(OC)cc(OC)c2)CC1` came in with a melting point of 150 to 151 °C.
Regarding `O=C1OCC(CNC2CCCCC2)C1(c1ccccc1)c1ccccc1` (stereo not drawn), the melting point is 129 to 131 °C.
As to `CC(=O)OCC1CC(n2c(I)nc3cc(Cl)c(Cl)cc32)C(OC(C)=O)C1OC(C)=O` (stereo not drawn), the melting point lay in the range of 152 to 153 °C.
The same measure for `Cn1c(=O)oc2c(OC3CCCCO3)cccc21` (stereo not drawn): 128 to 129 °C.
In turn, `CC(C)(C)Sc1c(CC(C)(C)C(=O)O)n(Cc2ccc(Cl)cc2)c2ccc(Oc3ccccn3)cc12` registered a melting point of 206 to 207 °C.
For `Oc1c2c(c3nccc4c3c1CCC4)CCCC2`, the melting point is 224 °C.
On to `Nc1ncnc2c1c(-c1ccc(Oc3ccccc3)cc1)cn2CC(=O)NCCOCCO`, for which the melting point was in the range of 145 to 147 °C.
In the case of `CNc1cc(SC2CCN(C)CC2)c(Cl)cc1[N+](=O)[O-]`, the melting point turned out to be 102 °C.
The same measure for `CC(C)c1ccc2nc3ccc(C(=O)OCCCc4cccnc4)cc3c(=O)n2c1`: 111 to 112 °C.
The same measure for `O=C(Nc1ccccc1)c1cccc(C2=NOCCS2)c1`: 149 to 150 °C; for `CC(Oc1cccc(Oc2c(Cl)cc(C(F)(F)F)cc2Cl)c1)(C(=O)Cl)[N+](=O)[O-]` (stereo not drawn): 92 °C; for `CCN1C(=O)C(C)(C)C(=O)N(C)c2cc(CN(CCn3cc(C)c4occc4c3=O)Cc3cncn3C)ccc21`: 100 to 105 °C.
To `Cc1c(C(=O)N(CC(=O)O)c2ccc(OCC(C)(C)C)c(C#N)c2)cnn1-c1ccc(F)cc1` belongs 105 to 110 °C; to `CC1CCCN1CCCN1CCN(C2CCN(Cc3ccccc3)CC2)C1=C(C#N)C#N` (stereo not drawn), 130 to 131 °C.
`CCN(c1ccc(Br)cc1)c1nc(=O)c2cccnc2s1`: the melting point fell in the range of 166 to 167 °C.
`O=C(NS(=O)(=O)NCC1CCCO1)OCc1ccccc1` (stereo not drawn) displayed a melting point of 96 to 97 °C.
To `Sc1cccc(CN2CCCCC2)c1` belongs 121 to 123 °C; to `O=C(O)C1=Cc2cc(Cl)c(Oc3ccc(Cl)cc3Br)cc2OC1C(F)(F)F` (stereo not drawn), 224 to 226 °C.
To `CCN(c1cc(C)c(C)c2cc(-c3ncc(CO)s3)[nH]c12)S(=O)(=O)c1cccs1` belongs 189 to 190 °C; to `CN1CCN(c2nc(-c3ccc(Cl)cc3)c(CCC(=O)O)o2)CC1`, 157 to 160 °C; to `CN1CCC(c2c[nH]c3ccc(OS(=O)(=O)c4c(F)cccc4F)cc23)CC1`, 214 to 215 °C.
The same measure for `CNC(=O)C(=O)CCCCCCSc1nc2ccccc2s1`: 83 to 84 °C; for `OC1COC(c2ccc(Cl)cc2)OC1` (stereo not drawn): 95 to 100 °C.
The compound `COc1ccc(-c2nc3cnc4ccccc4c3n2CC(C)C)cc1OC` came in with a melting point of 192 to 199 °C.
To `CCOC(=O)c1ccc(N2CCC(NCC(O)COc3cccc([N+](=O)[O-])c3N)CC2)nc1` (stereo not drawn) belongs 140 to 142 °C; to `C=C(C)C(=O)OC(c1ccccc1)(c1ccccc1)c1ccncc1`, 98.5 to 99.5 °C; to `CCOC(=O)c1c[nH]cc1-c1cccc(F)c1`, 120 to 122 °C.
Compound `Cc1cc(O)c(S(=O)C(C)(C)C)c(=O)o1` (stereo not drawn) displayed a melting point of 119 °C.
The compound `CCC(=O)N(c1ccc(C#N)cc1)c1c(NC(C)C(C)(C)C)c(=O)c1=O` (stereo not drawn) had a melting point of 211 to 214 °C.
Turning to `Cc1ccc(-c2c(CC(=O)O)c(C3CCCCC3)nn2-c2ccccc2)cc1`, the melting point lay in the range of 189 to 191 °C.
`CC1(C)C(N)CN1c1c(F)cc2c(=O)c(C(=O)O)cn(C3CC3)c2c1F` (stereo not drawn) came in with a melting point of 214 to 216 °C.
Regarding `Cc1ccccc1-c1nc2ccccc2n1Cc1c(F)cccc1F`, the melting point stood at 139 °C.
Consider `CC(C)(C)OC(=O)N1CCc2ccc(C(=O)NC3COCCn4c3nc(-c3ccncn3)cc4=O)cc2C1` (racemic), for which the melting point lay within 252 to 254 °C.
To `CCC(=O)Nc1cccc2c1C1(COc3cc4c(cc31)OCCO4)C(=O)N2C` (stereo not drawn) belongs 224 to 226 °C; to `COCC(=O)NNC(=O)c1cc2cccc(N(C)S(=O)(=O)c3cccs3)c2[nH]1`, 148 to 149 °C.
In turn, `Cc1ccc2c(c1)Oc1sc(C)cc1C(=O)N2` gave a melting point of 211 to 215 °C.
In turn, `Cc1cc([N+](=O)[O-])c(Cl)c([N+](=O)[O-])c1C` registered a melting point of 109 to 111 °C.
In turn, `COc1cc(C(C)C)c2c(c1)S(=O)(=O)N(COc1cc(C(F)(F)F)nn1-c1ccc(Cl)cc1)C2=O` came in with a melting point of 160 to 161 °C.
The same measure for `CO[C@H]1C(=O)N(S(C)(=O)=O)[C@H]2CCN(C(=O)OCc3ccccc3)[C@H]12` (relative stereo): 146 to 149 °C.
The compound `NC(=O)N[C@H]1CC[C@H](NC(N)=O)CC1` registered a melting point above 320 °C.
The same measure for `O=Cc1cc2ccccc2n1-c1cccnc1`: 101 to 103 °C; for `Cc1nc(I)cn1-c1ccc(F)cc1`: 151 °C.
Turning to `CC12C=CC(=O)C(N=C=S)=C1C=CC1C2CCC2(C)C(=O)CCC12` (stereo not drawn), the melting point was 146 to 166 °C.
`ClCCCOc1cccc(OCCCCl)c1` came in with a melting point of 135 to 136 °C.
In the case of `NC(C=Cc1ccccc1)=NO`, the melting point is 85 to 87 °C.
Compound `COc1ccc(C2=NN(C3CCCC3)C(=O)[C@H]3CC=CC[C@@H]23)cc1O` (relative stereo) had a melting point of 142 to 144 °C.
In turn, `CN1CCC(c2c[nH]c3ccc(NS(=O)(=O)c4ccccc4)nc23)CC1` came in with a melting point of 148 to 150 °C.
`CCCCCCCCCCCCCCCC(=O)OC(CCCCCCCCCCCCCC)C(=O)N[C@H](C(=O)N[C@@H](CCC(=O)O)C(=O)O)C(C)C` (stereo partly drawn) registered a melting point of 101 to 103 °C.
In turn, `CCNC(=O)Nc1nc2cc(-c3cccnc3)cc(N3CCC(O)C3)n2n1` (stereo not drawn) showed a melting point of 296 to 298 °C.
On to `CCNC(=O)Nc1n[nH]c2ccc(-c3ncccc3Cl)cc12`, for which the melting point lay in the range of 178 to 180 °C.
In turn, `CCOC(=O)C1=C(C)NC(C)=C2C(=O)Oc3cccnc3C12` (stereo not drawn) registered a melting point of 100 to 150 °C.

Source of the values: a melting point compilation (Tetko et al.; mined from patent text by program, amines drawn as free bases though some values may be those of a salt).
